Test results: US20030118627A1 (DABUR RESEARCH FOUNDATION, priority 2001, published 2003)

Columns and labels:
MOLT 4 = experiment: MTT cytotoxicity assay, MOLT 4 leukemia; type: cell-based; conditions: Homo sapiens
Protocol: (§1) Briefly, a […] MTT cytotoxicity assay was performed, which is based on the principle of uptake of MTT (3-(4,5-dimethylthiazol-2-yl)-2,5-diphenyl tetrazolium bromide), a tetrazolium salt, by the metabolically active cells where it is metabolized by active mitochondria into a blue colored formazan product that is read spectrophoto-metrically. MTT was dissolved in phosphate buffered saline with a pH of 7.4 to obtain an MTT concentration of 5 mg/ml; the resulting mixture was filtered through a 0.22 micron filter to sterilize and remove a small amount of insoluble residue. For each type of tumor cell, 20,000 to 50,000 cells were seeded in a 96-well culture plate and incubated with the combination in a CO2 incubator for 24 hours. […] The assay was terminated after 24 hours by adding 100 ug (20 ul) of MTT to each well, then incubating for additional one hour, and finally adding 50 ul of 10% SDS-0.01N HCl to each well to lyse the cells and dissolve formazan. After incubating for one hour, the plate was read spectrophotometrically at 540 nm and the percentage cytotoxicity calculated.

PA 1 = experiment: MTT cytotoxicity assay, PA 1 ovary; type: cell-based; conditions: Homo sapiens
Protocol: as §1

PTC = experiment: MTT cytotoxicity assay, PTC colon; type: cell-based; conditions: Homo sapiens
Protocol: as §1

Miapaca2 = experiment: MTT cytotoxicity assay, Miapaca2 pancreas; type: cell-based; conditions: Homo sapiens
Protocol: as §1

DU145 = experiment: MTT cytotoxicity assay, DU145 prostate; type: cell-based; conditions: Homo sapiens
Protocol: as §1

L132 = experiment: MTT cytotoxicity assay, L132 lung; type: cell-based; conditions: Homo sapiens
Protocol: as §1

MCF7 = experiment: MTT cytotoxicity assay, MCF7 breast; type: cell-based; conditions: Homo sapiens
Protocol: as §1

U87MG = experiment: MTT cytotoxicity assay, U87MG glioblastoma; type: cell-based; conditions: Homo sapiens, U-87 MG, 24 h, read-out: ED50 values of cytotoxicity
Protocol: as §1

KB = experiment: MTT cytotoxicity assay, KB oral; type: cell-based; conditions: Homo sapiens, 24 h, read-out: ED50 values of cytotoxicity
Protocol: as §1

Hep2 = experiment: MTT cytotoxicity assay, Hep2 larynx; type: cell-based; conditions: Homo sapiens, HEp-2, 24 h, read-out: ED50 values of cytotoxicity
Protocol: as §1

293 = experiment: MTT cytotoxicity assay, 293 kidney; type: cell-based; conditions: Homo sapiens, HEK293, 24 h, read-out: ED50 values of cytotoxicity
Protocol: as §1

INT 407 = experiment: MTT cytotoxicity assay, INT 407 intestine; type: cell-based; conditions: Homo sapiens, 24 h, read-out: ED50 values of cytotoxicity
Protocol: as §1

Swiss albino mice = conditions: both, mouse, in vivo, po, 15 days
Protocol: Acute toxicity studies were performed using the oral route of administration.
A batch of 5 female and 5 male mice each was administered the test substance by oral route. […] Another batch of 5 female and 5 male served as control.
Observations were made three times on the day of dosing and twice daily thereafter for the remainder of 14 days or until reversible toxic signs or symptoms subsided. All gross visible toxic signs and symptoms were recorded. Body weights were recorded prior to dosing and weekly thereafter.

[1] = 1.0 mM, read-out: Percent cytotoxicity
[2] = 2.5 mM, read-out: Percent cytotoxicity
[3] = 4 mM, read-out: Percent cytotoxicity
[4] = 5 mM, read-out: Percent cytotoxicity
[5] = 10 mM, read-out: Percent cytotoxicity
[6] = 24 h, read-out: ED50 values of cytotoxicity

Structure (SMILES): CCCCOC(=O)C1CCC(=O)N1C(O)C(C)=O (centres unmarked) [MGC-2, N-(1-hydroxy-2-ketopropyl)-butylpyroglutamate]
- IC50 (MOLT 4; 24 h, Molt 4 Leukemia, read-out: ED50 values of cytotoxicity): < 1000 µM
- cytotoxicity at 1000 µM (MOLT 4; MOLT 4 Leukemia, 1.0 mM, read-out: Percent cytotoxicity): 75.9%
- cytotoxicity at 2500 µM (MOLT 4; MOLT 4 Leukemia, 2.5 mM, read-out: Percent cytotoxicity): 85.9 ± 6.3%
- cytotoxicity at 4000 µM (MOLT 4; MOLT 4 Leukemia, 4 mM, read-out: Percent cytotoxicity): 87.8 ± 5%
- cytotoxicity at 5000 µM (MOLT 4; MOLT 4 Leukemia, 5 mM, read-out: Percent cytotoxicity): 88.2 ± 5.9%
- cytotoxicity at 10000 µM (MOLT 4; MOLT 4 Leukemia, 10 mM, read-out: Percent cytotoxicity): 90.2 ± 7.2%
- IC50 (PA 1; 24 h, PA 1 Ovarian, read-out: ED50 values of cytotoxicity): 1200 ± 200 µM
- cytotoxicity at 2500 µM (PA 1; PA 1 Ovary, 2.5 mM, read-out: Percent cytotoxicity): 57.9 ± 4.5%
- cytotoxicity at 4000 µM (PA 1; PA 1 Ovary, 4 mM, read-out: Percent cytotoxicity): 67.9 ± 5.4%
- cytotoxicity at 5000 µM (PA 1; PA 1 Ovary, 5 mM, read-out: Percent cytotoxicity): 84.9 ± 4.8%
- cytotoxicity at 10000 µM (PA 1; PA 1 Ovary, 10 mM, read-out: Percent cytotoxicity): 87.9 ± 6.3%
- cytotoxicity at 1000 µM (PTC; [1]): 45.8%
- cytotoxicity at 2500 µM (PTC; [2]): 68.9 ± 5.3%
- cytotoxicity at 4000 µM (PTC; [3]): 85.9 ± 6.2%
- cytotoxicity at 5000 µM (PTC; [4]): 88.8 ± 5.3%
- cytotoxicity at 10000 µM (PTC; [5]): 86.9 ± 5%
- IC50 (PTC; [6]): 1600 ± 100 µM
- cytotoxicity at 1000 µM (Miapaca2; MIA PaCa-2, 1.0 mM, read-out: Percent cytotoxicity): 34.8%
- cytotoxicity at 2500 µM (Miapaca2; MIA PaCa-2, 2.5 mM, read-out: Percent cytotoxicity): 64.9 ± 5.9%
- cytotoxicity at 4000 µM (Miapaca2; MIA PaCa-2, 4 mM, read-out: Percent cytotoxicity): 74.9 ± 3.8%
- cytotoxicity at 5000 µM (Miapaca2; MIA PaCa-2, 5 mM, read-out: Percent cytotoxicity): 76.9 ± 4%
- cytotoxicity at 10000 µM (Miapaca2; MIA PaCa-2, 10 mM, read-out: Percent cytotoxicity): 84.9 ± 6.3%
- IC50 (Miapaca2; MIA PaCa-2, 24 h, read-out: ED50 values of cytotoxicity): 1700 ± 600 µM
- cytotoxicity at 1000 µM (DU145; DU-145, 1.0 mM, read-out: Percent cytotoxicity): 43.9%
- cytotoxicity at 2500 µM (DU145; DU-145, 2.5 mM, read-out: Percent cytotoxicity): 53.9 ± 3.8%
- cytotoxicity at 4000 µM (DU145; DU-145, 4 mM, read-out: Percent cytotoxicity): 58.9 ± 4.3%
- cytotoxicity at 5000 µM (DU145; DU-145, 5 mM, read-out: Percent cytotoxicity): 67.9 ± 5.2%
- cytotoxicity at 10000 µM (DU145; DU-145, 10 mM, read-out: Percent cytotoxicity): 86.9 ± 6.9%
- IC50 (DU145; DU-145, 24 h, read-out: ED50 values of cytotoxicity): 1600 ± 100 µM
- cytotoxicity at 1000 µM (L132; [1]): 34.8%
- cytotoxicity at 2500 µM (L132; [2]): 58.5 ± 3.6%
- cytotoxicity at 4000 µM (L132; [3]): 62.9 ± 2.9%
- cytotoxicity at 5000 µM (L132; [4]): 87.8 ± 5.8%
- cytotoxicity at 10000 µM (L132; [5]): 88.6 ± 3%
- IC50 (L132; [6]): 1900 ± 800 µM
- IC50 (MCF7; MCF7, 24 h, MCF 7 Breast, read-out: ED50 values of cytotoxicity): 2500 ± 400 µM
- cytotoxicity at 1000 µM (MCF7; MCF7 breast, 1.0 mM, read-out: Percent cytotoxicity): 34.7%
- cytotoxicity at 2500 µM (MCF7; MCF7 breast, 2.5 mM, read-out: Percent cytotoxicity): 50.6 ± 4.1%
- cytotoxicity at 4000 µM (MCF7; MCF7 breast, 4 mM, read-out: Percent cytotoxicity): 57.9 ± 4.8%
- cytotoxicity at 5000 µM (MCF7; MCF7 breast, 5 mM, read-out: Percent cytotoxicity): 67.9 ± 4%
- cytotoxicity at 10000 µM (MCF7; MCF7 breast, 10 mM, read-out: Percent cytotoxicity): 78.9 ± 5.2%
- IC50 (U87MG): 3150 ± 1100 µM
- IC50 (KB): 2600 ± 500 µM
- IC50 (Hep2): 2000 ± 300 µM
- IC50 293: 2000 ± 800 µM
- IC50 (INT 407): 2700 ± 800 µM
- safe dose (Swiss albino mice): 75 mg
